{
  "source": "patent US6447767B1",
  "about": "“Non-myeloablative tolerogenic treatment” (Hadasit Medical Research Services and Development Ltd., priority 1997, dated 2002)",
  "key": {"[1]": {"test_system": "Lewis rat skin xenografts", "protocol": "The basic protocol for conditioning prior to transplantation included sTLI (1-6 daily exposures of 200 cGy) to a total dose of up to 1,200 cGy, followed by intravenous inoculation with 3×10^7 BMC on the day after the last TLI dose. […] One day after BMC infusion, experimental mice were injected with 200 mg/kg Cy (Taro, Israel) intraperitoneally. Cy was freshly dissolved in sterile phosphate-buffered saline prior to injection. […] A second infusion of donor, after Cy, was also administered in some of the mice.\nSkin grafting was carried out 20 days after completion of the tolerogenic treatment. A full-thickness skin graft measuring 1 cm×1 cm was adjusted to the graft bed by 4 Thomas surgery clips (Thomas Scientific, USA). The panniculus camosus was kept intact in the graft bed. The graft was considered to be accepted when hair of donor color grew on the soft flexible underlying skin, and rejected when donor epithelium was lost.\nTwo groups of mice were administered sTLI of 6 fractions of 200 cGy/day. After sTLI conditioning, both groups were administered 30×10^6 non-T cell depleted Lewis rat BMC intravenously. The first group was given a single dose of 200 mg/kg Cy the next day. Another 3×10^7 non T cell depleted rat BMC were administered the following day. In the second group, a dose of 60 mg/kg Cy was given daily for 3 days in contrast to the single 200 mg/kg dose given the first group. The first dose of Cy was given 10 hours after the first rat BMC inoculation, the second dose at 24 hours and the third dose at 48 hours (see below). After administration of three doses of 60 mg/kg Cy, a second inoculation of 3×10^7 non T cell depleted rat BMC were administered."}, "[2]": {"test_system": "metastatic solid tumors / lymphoma", "test": "AlloCT with rIL-2 activated mismatched lymphocytes plus tumor-specific antibodies (case reports)", "format": "in vivo, human", "conditions": "single patients; antibody given with rIL-2 activated haploidentically mismatched lymphocytes", "description": "Donor-derived anti-cancer effector lymphocytes consisted of rIL-2 activated cells (four days activation with rIL-26,000 IU/ml) or using donor lymphocytes activated in vitro against irradiated tumor cells or host alloantigens in one way mixed lymphocyte tumor reaction or using donor lymphocytes pre-cultured with irradiated parental or other family member expressing either one of the patient's haplotypes in one way mixed lymphocyte cultures (in order to induce effector cells against inherited paternal or maternal haplotypes, to maximize anti-host alloreactivity to be used as adoptive allogeneic cell therapy (alloCT). In order to maximize anti-cancer effects, patients can be immunosuppressed with Fludarabine 25 mg/m^2×5 days. […] Following cell infusion, patients receive subcutaneously rIL-2 6×10^6 IU/m^2 in an attempt to continue to activate in vivo donor anti-tumor reactive lymphocytes. Two weeks post cell therapy, patient may receive injections of alpha interferon 3×10^6 IU every other day subcutaneously as anti-proliferative and mostly as anti-angiogenic effects to minimize or jeopardize tumor cell growth from residual tumor cells escaping alloCT.\nThe alloCT course was done according to the scheme described.\nBoth cycles of alloCT were followed with SC injections of r-IL2 6×10^6 IU for five days."}, "[3]": {"test_system": "BALB/c mouse spleen cells", "test": "Mitogen-induced T cell proliferation ([3H]-thymidine incorporation)", "format": "cell-based", "procedure": "Mitogen-induced T cell proliferative responses were measured by culturing spleen cells in the presence of the T cell mitogens concanavalin A (ConA, 10 μg/ml) or phytohemagglutinin (PHA, 1 μg/ml) for three days. [^3H]-thymidine was added to the cultures for the last 6 hours of culture and T cell proliferation was measured in terms of counts per minute (cpm) of [^3H]-thymidine incorporated into the DNA of the cells using cell harvesting and radioactivity techniques known to those in the art.\nBALB/c spleen cells were cultured for 30 minutes at 37° C. in tissue culture medium containing 100 μg/ml of ASTA-Z and then tested for in vitro T cell responses."}, "Daudi target cells": {"test_system": "Daudi target cells", "test": "51Cr-release lysis by killer cells generated from human PBMC with rIL-2", "format": "cell-based", "procedure": "(§1) Percent lysis was calculated by the following formula: [formula]"}, "K562 target cells": {"test_system": "K562 target cells", "test": "51Cr-release lysis by killer cells generated from human PBMC with rIL-2", "format": "cell-based", "procedure": "as §1"}, "[4]": {"test_system": "murine P815 tumor target cells", "conditions": "BALB/c SP or BM cells, ASTA-Z then rIL-2 6,000 IU/ml 4 days (FIG. 19)", "procedure": "(§2) Human peripheral blood mononuclear cell (PBMC) and murine spleen or bone marrow populations were tested for their ability to lyse NK-sensitive target cells (human K562 and murine YAC-1 cells) and NK-resistant, activated NK-sensitive target cells (human Daudi and murine P815 cells) using standard ^51Cr-release assays. Briefly, ^51 Cr-labeled target cells were incubated at 37° C. with PBMC effector cells at various target cell to effector cell ratios for 4 hours. At the end of the incubation, the cells were pelleted by centrifugation and equal aliquots of supernatant were removed from each assay culture well and counted for radioactivity. Percent lysis was calculated by the following formula: [formula]\n(§3) They were then harvested and tested for cytolytic activity in standard ^51Cr-release assays. While YAC-1 cells are sensitive to lysis by both NK and activated NK cells, P815 cells are not sensitive to lysis by NK cells but are sensitive to activated NK cells. […] While K562 cells are sensitive to lysis by both NK and activated NK cells, Daudi cells are not sensitive to NK cells but are sensitive to activated NK cells."}, "[5]": {"test_system": "murine YAC-1 tumor target cells", "conditions": "BALB/c SP or BM cells, ASTA-Z then rIL-2 6,000 IU/ml 4 days (FIG. 18)", "procedure": "as §2, §3"}, "[6]": {"test": "GVHD induction by B6 bone marrow in lethally irradiated SJL/J mice", "format": "in vivo", "conditions": "B6 BM 30 min with 100 μg/ml, 25×10^6 per mouse, SJL/J 1,100 cGy TBI (FIG. 20)", "procedure": "(§4) Recipients were monitored for survival and clinical signs of GVHD such as ruffled fur, diarrhea, and measurable weight loss. […], samples of liver and lung sections were obtained form each mouse to test for histological evidence of GVHD. Histological preparations were analyzed by an independent pathologist on a double blind basis.\n(§5) In parallel murine experiments, culture of B6 bone marrow for 30 minutes with ASTA-Z (100 μg/ml) prior to injection (25×10^6 per mouse) into lethally irradiated (1,100 cGy of TBI) SJL/J mice reduced the capacity of the bone marrow cells to induce GVHD (FIG. 20). Similarly, culture of B6 spleen cells for 30 minutes with ASTA-Z (100 μg/ml) prior to injection (25×10^6 per mouse) into sublethally irradiated BALB/c mice (600 cGy) reduced the capacity of the spleen cells to induce GVHD (FIG. 21)."}, "[7]": {"test": "GVHD induction by B6 spleen cells in sublethally irradiated BALB/c mice", "format": "in vivo", "conditions": "B6 spleen cells 30 min with 100 μg/ml, 25×10^6 per mouse, BALB/c 600 cGy (FIG. 21)", "procedure": "as §4, §5"}, "[8]": {"conditions": "sTLI, rat BMC, single 200 mg/kg Cy, second rat BMC"}, "[9]": {"conditions": "ASTA-Z treated PBMC cultured with IL-2 6,000 IU/ml, target:effector 1:100"}, "[10]": {"conditions": "human PBMC, ASTA-Z then rIL-2 6,000 IU/ml 4 days"}},
  "note": "Where “and” joins values, the source holds several entries; their conditions need not be identical. Equal values may be shown once. Read-outs that look alike come from different tables or passages of the source.",
  "data": [
    {"molecule": "O=P1(N(CCCl)CCCl)NCCCO1", "note": "(centres unmarked) [Cy, cyclophosphamide]", "values": [
      {"measurement": "recipients that developed lethal GVHD", "setting": "[1]; Cy 3 × 60 mg/kg, of the 15 recipients that accepted xenografts", "result": 5},
      {"measurement": "Skin Graft Acceptance", "setting": "[1]; sTLI, rat BMC, Cy 60 mg/kg at 10 h, 24 h, 48 h, second rat BMC", "result": "15 of 20 and 15/20"},
      {"measurement": "Lethal GVHD", "setting": "[1]; [8]", "result": "in most of the recipients"},
      {"measurement": "Skin Graft Acceptance", "setting": "[1]; [8]", "result": "0/6"},
      {"measurement": "Skin Xenograft Survival Time", "setting": "[1]; [8]", "result": "<20", "unit": "days"}
    ]},
    {"molecule": "MabThera: monoclonal anti-CD20 antibodies", "values": [
      {"measurement": "clinical outcome", "setting": "[2]", "result": "no evidence of disease"}
    ]},
    {"molecule": "mafosphamide [ASTA-Z]", "values": [
      {"measurement": "in vitro proliferative responses to the T cell mitogens ConA and PHA", "setting": "[3]; 100 μg/ml, 30 minutes, 37°C", "result": "elimination"},
      {"measurement": "Cell Proliferation, Con-A", "setting": "[3]; BALB/c spleen cells, ASTA-Z 100 μg/ml 30 min 37°C and/or IL-2 1,000 IU/ml, ConA 10 μg/ml", "result": "2,980 cpm"},
      {"measurement": "Cell Proliferation, PHA", "setting": "[3]; BALB/c spleen cells, ASTA-Z 100 μg/ml 30 min 37°C and/or IL-2 1,000 IU/ml, PHA 1 μg/ml", "result": "5,118 cpm"},
      {"measurement": "Cell Proliferation, No Mitogens", "setting": "[3]; BALB/c spleen cells, ASTA-Z 100 μg/ml 30 min 37°C and/or IL-2 1,000 IU/ml, no mitogen", "result": 219, "unit": "cpm"},
      {"measurement": "effect of added IL-2 on inhibition of responsiveness to the mitogens", "setting": "[3]; IL-2 1,000 IU/ml added to cultures of spleen cells and ASTA-Z", "result": "did not overcome inhibition"},
      {"measurement": "Lysis of Daudi target cells (percentage of 51Cr released)", "setting": "Daudi target cells; [9]", "result": "42% and 71%"},
      {"measurement": "generation of killer cells capable of killing Daudi target cells", "setting": "Daudi target cells; [10]", "result": "did not decrease"},
      {"measurement": "Lysis of K562 target cells (percentage of 51Cr released)", "setting": "K562 target cells; [9]", "result": "52% and 48%"},
      {"measurement": "generation of killer cells capable of killing K562 target cells", "setting": "K562 target cells; [10]", "result": "did not decrease"},
      {"measurement": "generation of killer cells capable of killing P815 target cells", "setting": "[4]", "result": "did not decrease"},
      {"measurement": "generation of killer cells capable of killing YAC-1 target cells", "setting": "[5]", "result": "did not decrease"},
      {"measurement": "capacity of the bone marrow cells to induce GVHD", "setting": "[6]", "result": "reduced"},
      {"measurement": "capacity of the spleen cells to induce GVHD", "setting": "[7]", "result": "reduced"}
    ]},
    {"molecule": "Panorex: anti-epithelial cell antibodies, anti-17A (antibody, chains of the INN, looked up, V domains shown) VH: QVQLQQSGAELVRPGTSVKVSCKASGYAFTNYLIEWVKQRPGQGLEWIGVINPGSGGTNYNEKFKGKATLTADKSSSTAYMQLSSLTSDDSAVYFCARDGPWFAYWGQGTLVTVSA VL: NIVMTQSPKSMSMSVGERVTLTCKASENVVTYVSWYQQKPEQSPKLLIYGASNRYTGVPDRFTGSGSATDFTLTISSVQAEDLADYHCGQGYSYPYTFGGGTKLEIK", "values": [
      {"measurement": "clinical outcome", "setting": "[2]", "result": "no evidence of disease"}
    ]}
  ]
}
